Data: patent publication EP4464708A1, “NEW CONTRAST AGENTS FOR USE IN DIAGNOSTIC IMAGING” (Bayer Aktiengesellschaft, priority 2023, dated 2024)

Assay: Relaxivity measurements at 1.4 T
Format: physicochemical
Conditions: 1.41 T (60 MHz), 37°C, normalized to Mn
Experimental: T1 and T2 relaxation time were measured at 60 MHz (1.41 T) and 37°C using a Bruker mq60 minispec contrast agent analyzer. Manganese containing chelates were dissolved in different media at and each relaxivity measurement was performed using three different Mn concentrations. Measurement of r1 and r2 relaxivities were performed using concentrations of 0, 0.25, 0.5 and 1mM Mn in water and human plasma containing heparin as anticoagulant. The relaxivities ri (where i=1, 2) were calculated based on the measured relaxation rates Ri in water and plasma: ri = (Ri−Ri(0))/CMn [formula] where Ri(0) represent the relaxation rate of the respective solvent and CMn the concentration of the compound normalized to Manganese. The Manganese concentrations of the investigated solutions were verified by Inductively Coupled Plasma Mass Spectrometry (ICP-MS Agilent 7500a, Waldbronn, Germany). Table 1: Relaxivities of investigated compound in water and human plasma at 1.41 T. All values are measured at 37°C and normalized to Mn and given in L mmol-1 s-1.

Q: For `O=C(CCC(C(=O)[O-])N1CCOCCN(C(CCC(=O)NC[C@H](O)[C@@H](O)[C@H](O)[C@H](O)CO)C(=O)[O-])Cc2cccc(n2)C1)NC[C@H](O)[C@@H](O)[C@H](O)[C@H](O)CO.[Mn+2]` (stereo partly drawn) [Example 2, manganese(^2+) 2-[9-(1-carboxylato-4-oxo-4-{[(2S,3R,4R,5R)-2,3,4,5,6-pentahydroxyhexyl]amino}butyl)-6-oxa-3,9,15-triazabicyclo[9.3.1]pentadeca-1(15),11,13-trien-3-yl]-5-oxo-5-{[(2S,3R,4R,5R)-2,3,4,5,6-pentahydroxyhexyl]amino}pentanoate], which r1 (human plasma (heparin as anticoagulant)) is on record?
A: 6.4 L mM^-1s^-1

Q: What about the r1 (water) of the same compound?
A: 5.0 L mM^-1s^-1
